Earlier results as cited in patent publication US20170119791A1, “METHODS AND COMPOSITIONS FOR DERMATOLOGICAL USE COMPRSING BETAMETHASONE AND BIOPOLYMERS” (APEX LABORATORIES PRIVATE LIMITED, priority 2015, published 2017).
Where two headings read alike, the source gives them in different places.

| SMILES | Solubility (in acetone) | Solubility (in alcohol) | Solubility (in water) | Solubility (in benzene) | Solubility (in chloroform) | Solubility (in ether) |
| --- | --- | --- | --- | --- | --- | --- |
| CCC(=O)OCC(=O)[C@@]1(OC(=O)CC)[C@@H](C)C[C@H]2[C@@H]3CCC4=CC(=O)C=C[C@]4(C)[C@@]3(F)[C@@H](O)C[C@@]21C [Betamethasone dipropionate, 9-fluoro-11β, 17,21-trihydroxy-16β-methylpregna-1,4-diene-3,20-dione 17,21-dipropionate] | freely soluble | sparingly soluble | insoluble |  |  |  |
| CCCCC(=O)O[C@]1(C(=O)CO)[C@@H](C)C[C@H]2[C@@H]3CCC4=CC(=O)C=C[C@]4(C)[C@@]3(F)[C@@H](O)C[C@@]21C [Betamethasone valerate, 9-Fluoro-11β, 17,21-trihydroxy-16β-methylpregna-1,4-diene-3,20-dione 17-valerate] | freely soluble | soluble | practically insoluble | slightly soluble | freely soluble | slightly soluble |
